Test results published in patent publication US20160368872A1, “COMPOUNDS AND METHODS FOR TREATING CANCERS” (HEALTH RESEARCH, INC., priority 2013, published 2016).
One block for each compound: values may come before it.

Experiments:
androgen receptor = test: AR level in cells with inhibited p53 activity; assay type: cell-based; conditions: MCF7 cells with functionally inactive p53 (R175H, GSE56)
Source text: Also tested was the hypothesis that degradation of androgen receptor in prostate and breast cancer cells may be due to p53 induced accumulation of mdm2, which is also ubiquitin ligase for androgen receptor (FIG. 15). p53 was inactivated in several cell lines using different approaches what led to the blockade of mdm2 accumulation after c52 treatment. However androgen receptor was still degraded in c52 treated cells even in the absence of p53 activation and mdm2 accumulation (FIG. 16).

PC3 = test: inhibition of growth of cell lines (IC50 categories); assay type: cell-based; conditions: Homo sapiens, PC-3
Method: (§1) This example provides a table (below) of the compounds of the present disclosure and their activity towards four different cell lines (i.e., CWR22R, Hela, PC3, and MDA-MB-231). The IC50 for inhibition of growth is divided into 4 categories: A<1 μM, B 1-5 μM, […], D>20 μM.
(§2) All compounds were tested for toxicity using 4 cells lines, target cells-CWR22R and non-target cells, Hela, PC3 and MDA-MB-231 (FIGS. 1A-F).

Hela = test: as above; assay type: cell-based; conditions: Homo sapiens
Method: as §1, §2

CWR22R = test: as above; assay type: cell-based; conditions: Homo sapiens, 22Rv1
Method: as §1, §2

MDA-MB-231 = test: as above; assay type: cell-based; conditions: Homo sapiens
Method: as §1, §2

[1] = solubility for in vivo administration; assay type: physicochemical
[2] = tissue drug concentrations in mice bearing CWR22R tumors; assay type: in vivo, SCID mice
Method: (§3) We tested these compounds in an in vivo efficacy experiment using model of CRPC in SCID mice, CWR22R. Two compounds, PLA1079 and 1125, which were synthesized in the amount of 500 mg were tested in full scale experiment with either 5 IV daily injections or 10 IP daily injections. After 5 IP or IV injections intra-tumor concentration of the compounds were measured in few mice from this experiment.
Two other compounds, PLA1148 and 1098 (PK testing in FIGS. 8 and 9) were tested in a small scale efficacy experiment. Upon PK testing of the compound PLA1148 one mouse was injected twice with 10 min interval. However the concentration of the drug in plasma of this mouse was not twice, but >4 times higher than in mice injected once. […] It was decided to utilize this observation in an attempt to get higher plasma and tumor concentration of both compounds. Therefore in the pilot efficacy experiment in the same model of CWR22R cells mice were treated with 2 IP injections with 10 minute interval. Treatment with PLA1098 was carried out for two days. […] However this is so far the highest concentration found in tumor. […]

CWR22R cells = assay type: cell-based
Method: as §2
LC50 data of in vitro 72 hours cytotoxicity assay are included in this table for comparison.

[3] = plasma concentration after intravenous and intraperitoneal injections (PK); assay type: in vivo; conditions: for bioavailability through IP injection: IP versus IV, doses 50-100 mg/kg; for course of plasma concentration: after intravenous and intraperitoneal injections, 50-100 mg/kg
CWR22R tumors = test: in vivo efficacy, subcutaneous xenografts of CWR22R cells in SCID mice
Method: as §3
(§4) Two other compounds, PLA1148 and 1098 (PK testing in FIGS. 8 and 9) were tested in a small scale efficacy experiment. Upon PK testing of the compound PLA1148 one mouse was injected twice with 10 min interval. However the concentration of the drug in plasma of this mouse was not twice, but >4 times higher than in mice injected once. […] It was decided to utilize this observation in an attempt to get higher plasma and tumor concentration of both compounds. Therefore in the pilot efficacy experiment in the same model of CWR22R cells mice were treated with 2 IP injections with 10 minute interval. Treatment with PLA1098 was carried out for two days. […] However this is so far the highest concentration found in tumor.
Pilot efficacy experiments were run for compounds: PLA1163, PLA1148 using the same model of subcutaneous xenografts of CWR22R cells in SCID mice (FIGS. 18 and 19).

[4] = toxicity observed in mice of the pilot efficacy experiments; assay type: in vivo; conditions: 2 IP injections with 10 minute interval, one day
Method: as §4
This compound may be also potentially promising.

[5] = aqueous solubility (pH 7.4); assay type: physicochemical
[6] = metabolic stability in the presence of mouse liver microsomes; assay type: in vitro ADME
Method: 8 compounds were selected based on the solubility and metabolic stability as well as considering chemical diversity to test for time dependence stability in the presence of mouse […] (FIG. 2). […] Two compounds, PLA1190 and 1197, have desirable metabolic stability, 70 and 77% left after 30 minute incubation with mouse liver microsome respectively. Formulations for in vivo administration were developed for 4 compounds, PLA1079, 1125, 1098 and 1148.

[7] = one mouse at 24 hours after injections

IC50 (PC3): > 20 µM
IC50 (Hela): > 20 µM
IC50 (MDA-MB-231): > 20 µM
SMILES: O=c1[nH]ccc2c1ccc1c2c2ncccc2n1CCC(F)F [Compound 15-1, 7-(3,3-Difluoropropyl)-3,7-dihydro-3,7,11-triaza-benzo[c]fluoren-4-one]
IC50 (CWR22R): > 20 µM

solubility [1]: poorly soluble
SMILES: CCCn1c2ccccc2c2c3cc[nH]c(=O)c3ccc21 [PLA1099]

Aqueous Solubility Classification [5]: Low
SMILES: O=c1[nH]ccc2c1ccc1c2c2ncccc2n1CCCF [PLA1181]

Aqueous Solubility Classification [5]: Low
Aqueous Solubility (pH 7.4) [5]: 3.5 μM
left after 30 minute incubation with mouse liver microsome [6]: 70%
SMILES: O=c1[nH]c2ccc3c(c4ccccc4n3CCCF)c2o1 [PLA1190]

Aqueous Solubility Classification [5]: High
Aqueous Solubility (pH 7.4) [5]: 130 μM
SMILES: CC(=O)c1ccc2c(c1)c1c(C(N)=O)cccc1n2CCCF [PLA1191]

Aqueous Solubility Classification [5]: Low
Aqueous Solubility (pH 7.4) [5]: 2.7 μM
SMILES: N#Cc1cccc2c1c1c3cc[nH]c(=O)c3ccc1n2CCCF [PLA1195]

Aqueous Solubility Classification [5]: Low
Aqueous Solubility (pH 7.4) [5]: 4.0 μM
left after 30 minute incubation with mouse liver microsome [6]: 77%
SMILES: O=C1CCc2c1ccc1c2c2c(F)cccc2n1CCCF [PLA1197]

Aqueous Solubility Classification [5]: Low
Aqueous Solubility (pH 7.4) [5]: 2.5 μM
SMILES: CC(=O)c1ccc2c(c1)c1c3c(ccc1n2CCCF)C(=O)CC3 [PLA1198]

Aqueous Solubility Classification [5]: Low
Aqueous Solubility (pH 7.4) [5]: 2.3 μM
SMILES: O=C1CCc2c1ccc1c2c2cc(Br)ccc2n1CCCF [PLA1199]

Second part, the compound before the results:

SMILES: CC(=O)c1ccc2c(c1)c1cc(C(C)=O)ccc1n2CCNC(C)C [CBL 137, reference compound]
AR level (androgen receptor): AR is being degraded

SMILES: O=c1[nH]ccc2c1ccc1c2c2ccccc2n1CCCF [PLA1121]
solubility [1]: poorly soluble

SMILES: FCCCn1c2ccccc2c2cc(-c3nnco3)ccc21 [PLA1125]
Tumor concentration ([2]; 100 mg/kg, IP/IV): 7 to 10 nM
CC50 (CWR22R cells): 0.1 µM
bioavailability through IP injection [3]: very high bioavailability
course of plasma concentration [3]: fast reduction of concentration during the first hour
in vivo efficacy (CWR22R tumors; 5 IV daily injections or 10 IP daily injections): absence of in vivo efficacy

SMILES: O=C1NCCc2c1ccc1c2c2ncccc2n1CCCF [PLA1148]
Liver ([2]; 50 mg/kg, IP): 50 nM
Tumor concentration ([2]; 50 mg/kg, IP): 0 to 90 nM
Tumor concentration ([2]; 48 hours after treatment): 84 nM
liver concentration ([2]; 48 hours after treatment): 49 nM
plasma concentration ([2]; mice euthanized at 48 hours after treatment): The same plasma concentration
drug in liver [2, 7]: no drug detected
drug in tumor [2, 7]: no drug detected
plasma concentration [2, 7]: 8.5 nM
deaths of mice [4]: 2 mice died next day and 3 other during next 5 days
toxicity after injection [4]: acute toxicity developed quickly after injection, symptoms suggested acute liver failure
bioavailability through IP injection [3]: very high bioavailability
course of plasma concentration [3]: fast reduction of concentration during the first hour
concentration in plasma of mouse injected twice with 10 min interval versus mice injected once ([3]; one mouse injected twice): > 4 times
tumors of mice that died on the 5th day (CWR22R tumors; two mice, injected only one day): almost undetectable tumors

SMILES: O=C1NCCOc2c1ccc1c2c2ccccc2n1CCCF [PLA1163]
Liver ([2]; 40 mg/kg, IP): 307 nM
Tumor concentration ([2]; 40 mg/kg, IP): 4 to 10 nM
CC50 (CWR22R cells): 0.2 µM
solubility [1]: poorly soluble

SMILES: O=c1c2ccc3c(c2ccn1CCO)c1ccccc1n3CCCF [PLA1192]
Aqueous Solubility Classification [5]: Moderate
Aqueous Solubility (pH 7.4) [5]: 15 μM

SMILES: O=c1c2ccc3c(c2ccn1CCN1CCCC1)c1ccccc1n3CCCF [PLA1193]
Aqueous Solubility Classification [5]: High
Aqueous Solubility (pH 7.4) [5]: 140 μM

SMILES: CN1Cc2c(ccc3c2c2ccccc2n3CCC(F)F)C1=O [PLA1194]
Aqueous Solubility Classification [5]: Moderate
Aqueous Solubility (pH 7.4) [5]: 18 μM

SMILES: NC(=O)c1cccc2c1c1c3cc[nH]c(=O)c3ccc1n2CCCF [PLA1196]
Aqueous Solubility Classification [5]: Moderate
Aqueous Solubility (pH 7.4) [5]: 26 μM
